Test results as given in US8802849B2, “Tricyclic benzo[4,5]thieno-[2,3-d]pyrimidine-4-yl-amin derivatives, their salts, process for producing the compounds and their pharmaceutical use” (Vichem Chemie Kutató Kft., priority 2008, dated 2014).

Experiments:
[1] = molecular target: EGFR (Homo sapiens, UniProt P00533); test: EGFR kinase assay (33P-ATP filter plate); format: biochemical; conditions: for inhibition at 10 µM: 10 μM compound, read-out: EGFR percent of inhibition; for IC50: EGFR-PTK assay
Experimental: (§1) General description of the kinase assays: the kinase activity was assayed in 96-well microtiter plates at a final compound concentration of 10 μM in a total volume of 50 μl. Compounds were dissolved in 100% DMSO to prepare a 10 mM stock solution and than diluted with buffer to reach a 10 μM (or the required) final concentration. The kinase concentration was used to yield 10% ATP turn over. The ATP concentration was used at the KmATP and 12.5 μCi/ml adenosine 5′[γ-33P]triphosphate. The substrate concentration was used at 5 fold excess over the Km for the substrate. The reaction was incubated for 1 hour at room temperature and stopped by addition of 10 μl 50 mM EDTA. The assay was transferred to a 96 well MAPH filter plate (Millipore). The radioactivity was counted on a Microbeta microplate counter.

[2] = molecular target: AKT1/PKBa (Homo sapiens, UniProt P31749); test: AKT1/PKBa kinase assay; format: biochemical; conditions: 10 μM compound; read-out: AKT1/PKBa percent of inhibition
Experimental: as §1

[3] = molecular target: Abl (Homo sapiens, UniProt P00519); test: Abl kinase assay; format: biochemical; conditions: 10 μM compound; read-out: Abl percent of inhibition
Experimental: as §1

[4] = molecular target: CDK2/CycA (Homo sapiens, UniProt P24941); test: CDK2/CycA kinase assay; format: biochemical; conditions: 10 μM compound; read-out: CDK2/CycA percent of inhibition
Experimental: as §1

[5] = molecular target: CK1-alpha (Homo sapiens, UniProt P48729); test: CK1-alpha kinase assay; format: biochemical; conditions: 10 μM compound; read-out: CK1-alpha percent of inhibition
Experimental: as §1

[6] = molecular target: GSK-3beta (Homo sapiens, UniProt P49841); test: GSK-3beta kinase assay; format: biochemical; conditions: 10 μM compound; read-out: GSK-3beta percent of inhibition
Experimental: as §1

[7] = molecular target: T1, IKK-beta (Homo sapiens, UniProt O14920); test: IKK-beta kinase assay; format: biochemical; conditions: 10 μM compound; read-out: IKK-beta percent of inhibition
T1 sequence (O14920 1-756): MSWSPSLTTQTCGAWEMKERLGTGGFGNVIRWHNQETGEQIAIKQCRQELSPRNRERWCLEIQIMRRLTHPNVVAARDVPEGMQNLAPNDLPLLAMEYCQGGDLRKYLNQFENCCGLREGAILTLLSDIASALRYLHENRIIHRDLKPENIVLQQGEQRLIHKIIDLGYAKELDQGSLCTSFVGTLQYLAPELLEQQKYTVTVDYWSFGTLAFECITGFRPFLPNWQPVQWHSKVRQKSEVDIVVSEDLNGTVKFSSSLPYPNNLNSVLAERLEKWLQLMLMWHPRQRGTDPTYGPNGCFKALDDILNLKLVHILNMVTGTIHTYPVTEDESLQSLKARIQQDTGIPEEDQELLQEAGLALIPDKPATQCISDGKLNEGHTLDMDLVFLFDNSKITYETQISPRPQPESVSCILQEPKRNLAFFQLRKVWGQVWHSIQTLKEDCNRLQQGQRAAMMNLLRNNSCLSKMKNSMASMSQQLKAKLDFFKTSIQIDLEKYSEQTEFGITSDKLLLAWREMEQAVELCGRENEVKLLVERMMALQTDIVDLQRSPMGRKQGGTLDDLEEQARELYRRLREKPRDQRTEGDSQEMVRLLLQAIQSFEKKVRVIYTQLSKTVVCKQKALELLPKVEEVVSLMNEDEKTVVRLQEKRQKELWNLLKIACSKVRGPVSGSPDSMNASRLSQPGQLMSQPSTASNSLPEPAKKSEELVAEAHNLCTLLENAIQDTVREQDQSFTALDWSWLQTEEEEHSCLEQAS
Experimental: as §1

[8] = molecular target: InsR (Homo sapiens, UniProt P06213); test: InsR kinase assay; format: biochemical; conditions: 10 μM compound; read-out: InsR percent of inhibition
Experimental: as §1

[9] = molecular target: Jnk1a1 (Homo sapiens, UniProt P45983); test: Jnk1a1 kinase assay; format: biochemical; conditions: 10 μM compound; read-out: Jnk1a1 percent of inhibition
Experimental: as §1

[10] = molecular target: Kit (Homo sapiens, UniProt P10721); test: Kit kinase assay; format: biochemical; conditions: 10 μM compound; read-out: Kit percent of inhibition
Experimental: as §1

[11] = molecular target: MAPK-ERK1 (Homo sapiens, UniProt P27361); test: MAPK-ERK1 kinase assay; format: biochemical; conditions: 10 μM compound; read-out: MAPK-ERK1 percent of inhibition
Experimental: as §1

[12] = molecular target: PDGFR-beta (Homo sapiens, UniProt P09619); test: PDGFR-beta kinase assay; format: biochemical; conditions: 10 μM compound; read-out: PDGFR-beta percent of inhibition
Experimental: as §1

[13] = molecular target: ROCK2 (Homo sapiens, UniProt O75116); test: ROCK2 kinase assay; format: biochemical; conditions: 10 μM compound; read-out: ROCK2 percent of inhibition
Experimental: as §1

[14] = molecular target: RSK1 (Homo sapiens, UniProt Q15418); test: RSK1 kinase assay; format: biochemical; conditions: 10 μM compound; read-out: RSK1 percent of inhibition
Experimental: as §1

[15] = molecular target: SRPK1 (Homo sapiens, UniProt Q96SB4); test: SRPK1 kinase assay; format: biochemical; conditions: 10 μM compound; read-out: SRPK1 percent of inhibition
Experimental: as §1

[16] = molecular target: c-Raf (Homo sapiens, UniProt P04049); test: c-Raf kinase assay; format: biochemical; conditions: 10 μM compound; read-out: c-Raf percent of inhibition
Experimental: as §1

[17] = molecular target: c-Src (Homo sapiens, UniProt P12931); test: c-Src kinase assay; format: biochemical; conditions: 10 μM compound; read-out: c-Src percent of inhibition
Experimental: as §1

[18] = molecular target: cMet (Homo sapiens, UniProt P08581); test: cMet kinase assay; format: biochemical; conditions: 10 μM compound; read-out: cMet percent of inhibition
Experimental: as §1

[19] = molecular target: P56Lck (Homo sapiens, UniProt P06239); test: P56Lck kinase assay; format: biochemical; conditions: 10 μM compound; read-out: P56Lck percent of inhibition
Experimental: as §1

[20] = molecular target: P70S6K (Homo sapiens, UniProt P23443); test: P70S6K kinase assay; format: biochemical; conditions: 10 μM compound; read-out: P70S6K percent of inhibition
Experimental: as §1

Sequence of CK1-alpha (P48729 whole entry): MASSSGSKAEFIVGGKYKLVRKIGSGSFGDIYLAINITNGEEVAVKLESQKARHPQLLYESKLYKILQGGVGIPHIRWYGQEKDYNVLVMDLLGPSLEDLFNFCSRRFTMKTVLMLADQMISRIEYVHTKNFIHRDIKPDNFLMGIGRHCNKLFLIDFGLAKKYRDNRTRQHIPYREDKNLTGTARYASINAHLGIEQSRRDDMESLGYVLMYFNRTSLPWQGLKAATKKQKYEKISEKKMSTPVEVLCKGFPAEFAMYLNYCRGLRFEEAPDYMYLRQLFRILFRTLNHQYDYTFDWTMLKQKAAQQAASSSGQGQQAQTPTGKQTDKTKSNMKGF
Sequence of AKT1/PKBa (P31749 whole entry): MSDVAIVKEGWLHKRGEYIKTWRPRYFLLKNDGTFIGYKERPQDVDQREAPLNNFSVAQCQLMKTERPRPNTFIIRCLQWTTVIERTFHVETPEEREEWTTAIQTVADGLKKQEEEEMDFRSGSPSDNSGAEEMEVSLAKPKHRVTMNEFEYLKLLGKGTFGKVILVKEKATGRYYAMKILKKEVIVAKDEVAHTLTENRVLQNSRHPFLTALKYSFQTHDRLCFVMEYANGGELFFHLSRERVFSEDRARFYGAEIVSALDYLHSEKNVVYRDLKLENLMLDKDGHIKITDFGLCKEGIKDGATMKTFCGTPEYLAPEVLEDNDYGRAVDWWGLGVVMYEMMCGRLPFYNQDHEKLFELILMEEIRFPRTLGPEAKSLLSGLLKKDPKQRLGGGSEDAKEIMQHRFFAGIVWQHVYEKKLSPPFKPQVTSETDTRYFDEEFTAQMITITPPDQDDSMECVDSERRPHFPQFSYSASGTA
Sequence of ROCK2 (O75116 whole entry, species assumed): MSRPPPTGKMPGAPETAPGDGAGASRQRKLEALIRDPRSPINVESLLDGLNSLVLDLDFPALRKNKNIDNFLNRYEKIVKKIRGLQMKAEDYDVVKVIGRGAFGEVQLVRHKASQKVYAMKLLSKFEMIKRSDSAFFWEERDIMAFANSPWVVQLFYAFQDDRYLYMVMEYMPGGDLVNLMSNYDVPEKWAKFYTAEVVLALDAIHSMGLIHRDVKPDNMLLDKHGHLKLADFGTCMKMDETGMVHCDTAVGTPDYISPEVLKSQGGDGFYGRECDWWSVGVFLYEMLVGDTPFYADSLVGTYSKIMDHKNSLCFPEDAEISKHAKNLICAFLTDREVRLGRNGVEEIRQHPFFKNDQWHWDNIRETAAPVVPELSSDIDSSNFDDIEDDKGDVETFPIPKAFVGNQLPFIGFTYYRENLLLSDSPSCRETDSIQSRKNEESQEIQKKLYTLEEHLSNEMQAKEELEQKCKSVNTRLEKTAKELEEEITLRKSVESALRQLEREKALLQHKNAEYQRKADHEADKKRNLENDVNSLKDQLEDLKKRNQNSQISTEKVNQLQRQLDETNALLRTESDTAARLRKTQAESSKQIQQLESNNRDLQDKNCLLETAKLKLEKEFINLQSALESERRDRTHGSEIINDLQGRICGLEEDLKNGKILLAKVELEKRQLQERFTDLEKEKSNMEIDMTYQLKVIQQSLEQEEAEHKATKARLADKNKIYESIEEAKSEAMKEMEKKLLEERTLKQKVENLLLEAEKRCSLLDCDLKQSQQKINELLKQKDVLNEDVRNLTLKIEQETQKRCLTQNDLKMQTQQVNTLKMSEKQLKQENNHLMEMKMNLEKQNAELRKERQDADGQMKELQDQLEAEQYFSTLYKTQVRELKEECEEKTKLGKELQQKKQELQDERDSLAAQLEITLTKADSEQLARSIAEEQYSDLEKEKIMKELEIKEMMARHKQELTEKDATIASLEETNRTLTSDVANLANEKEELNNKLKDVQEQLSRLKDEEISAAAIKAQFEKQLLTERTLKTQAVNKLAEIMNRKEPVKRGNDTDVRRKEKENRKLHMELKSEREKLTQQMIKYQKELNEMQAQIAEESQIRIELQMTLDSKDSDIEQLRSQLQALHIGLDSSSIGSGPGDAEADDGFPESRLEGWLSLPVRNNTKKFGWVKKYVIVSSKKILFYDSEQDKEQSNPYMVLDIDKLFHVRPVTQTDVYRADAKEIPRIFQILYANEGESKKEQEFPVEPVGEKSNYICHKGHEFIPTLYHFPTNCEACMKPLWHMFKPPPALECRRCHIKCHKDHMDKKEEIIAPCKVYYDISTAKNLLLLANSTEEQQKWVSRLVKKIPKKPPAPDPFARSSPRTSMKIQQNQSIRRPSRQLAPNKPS
Sequence of P56Lck (P06239 whole entry, species assumed): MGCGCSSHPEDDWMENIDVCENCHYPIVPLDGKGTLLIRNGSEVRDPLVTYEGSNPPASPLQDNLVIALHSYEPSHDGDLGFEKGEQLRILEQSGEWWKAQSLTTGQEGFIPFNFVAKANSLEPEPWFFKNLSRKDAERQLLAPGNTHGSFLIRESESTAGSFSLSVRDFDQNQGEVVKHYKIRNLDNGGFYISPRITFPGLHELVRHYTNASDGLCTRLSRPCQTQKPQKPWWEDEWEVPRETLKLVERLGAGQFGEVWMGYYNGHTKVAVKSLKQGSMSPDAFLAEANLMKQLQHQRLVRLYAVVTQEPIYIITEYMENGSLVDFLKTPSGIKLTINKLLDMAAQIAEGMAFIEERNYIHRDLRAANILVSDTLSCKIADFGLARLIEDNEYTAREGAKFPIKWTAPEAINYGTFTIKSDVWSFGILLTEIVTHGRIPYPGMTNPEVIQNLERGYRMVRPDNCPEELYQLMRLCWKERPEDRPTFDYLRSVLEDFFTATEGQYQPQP
Sequence of P70S6K (P23443 whole entry): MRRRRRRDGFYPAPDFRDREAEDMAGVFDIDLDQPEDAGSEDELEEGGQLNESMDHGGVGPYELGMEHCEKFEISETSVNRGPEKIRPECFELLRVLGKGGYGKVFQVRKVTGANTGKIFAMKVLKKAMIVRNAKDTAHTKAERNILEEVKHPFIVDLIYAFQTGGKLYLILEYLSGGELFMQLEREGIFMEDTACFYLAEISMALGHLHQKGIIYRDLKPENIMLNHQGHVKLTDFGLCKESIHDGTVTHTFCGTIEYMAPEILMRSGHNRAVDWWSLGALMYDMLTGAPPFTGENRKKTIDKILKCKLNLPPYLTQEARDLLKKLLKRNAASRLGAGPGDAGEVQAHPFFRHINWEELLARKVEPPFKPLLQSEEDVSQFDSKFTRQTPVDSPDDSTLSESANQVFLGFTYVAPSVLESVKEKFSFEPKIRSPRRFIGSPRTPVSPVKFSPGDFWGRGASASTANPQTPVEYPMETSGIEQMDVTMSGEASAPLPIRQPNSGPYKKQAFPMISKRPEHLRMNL
Sequence of c-Raf (P04049 whole entry, species assumed): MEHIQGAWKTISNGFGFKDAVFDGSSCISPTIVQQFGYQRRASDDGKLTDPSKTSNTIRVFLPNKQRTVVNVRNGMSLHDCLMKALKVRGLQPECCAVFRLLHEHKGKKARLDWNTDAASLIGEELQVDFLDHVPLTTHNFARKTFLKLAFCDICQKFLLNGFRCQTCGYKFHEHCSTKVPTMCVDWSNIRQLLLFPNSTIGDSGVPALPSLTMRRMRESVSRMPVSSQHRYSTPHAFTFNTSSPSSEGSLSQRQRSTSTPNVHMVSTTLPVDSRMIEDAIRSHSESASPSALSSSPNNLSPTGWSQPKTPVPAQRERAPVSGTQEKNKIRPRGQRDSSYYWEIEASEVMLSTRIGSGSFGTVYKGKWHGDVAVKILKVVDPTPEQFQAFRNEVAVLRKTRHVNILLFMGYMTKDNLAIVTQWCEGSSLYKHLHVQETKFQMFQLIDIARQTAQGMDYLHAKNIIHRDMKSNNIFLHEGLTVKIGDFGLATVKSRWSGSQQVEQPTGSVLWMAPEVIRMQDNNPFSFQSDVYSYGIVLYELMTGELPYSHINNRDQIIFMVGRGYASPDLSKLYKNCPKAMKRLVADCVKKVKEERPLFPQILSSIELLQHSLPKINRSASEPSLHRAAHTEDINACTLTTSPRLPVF
Sequence of RSK1 (Q15418 whole entry, species assumed): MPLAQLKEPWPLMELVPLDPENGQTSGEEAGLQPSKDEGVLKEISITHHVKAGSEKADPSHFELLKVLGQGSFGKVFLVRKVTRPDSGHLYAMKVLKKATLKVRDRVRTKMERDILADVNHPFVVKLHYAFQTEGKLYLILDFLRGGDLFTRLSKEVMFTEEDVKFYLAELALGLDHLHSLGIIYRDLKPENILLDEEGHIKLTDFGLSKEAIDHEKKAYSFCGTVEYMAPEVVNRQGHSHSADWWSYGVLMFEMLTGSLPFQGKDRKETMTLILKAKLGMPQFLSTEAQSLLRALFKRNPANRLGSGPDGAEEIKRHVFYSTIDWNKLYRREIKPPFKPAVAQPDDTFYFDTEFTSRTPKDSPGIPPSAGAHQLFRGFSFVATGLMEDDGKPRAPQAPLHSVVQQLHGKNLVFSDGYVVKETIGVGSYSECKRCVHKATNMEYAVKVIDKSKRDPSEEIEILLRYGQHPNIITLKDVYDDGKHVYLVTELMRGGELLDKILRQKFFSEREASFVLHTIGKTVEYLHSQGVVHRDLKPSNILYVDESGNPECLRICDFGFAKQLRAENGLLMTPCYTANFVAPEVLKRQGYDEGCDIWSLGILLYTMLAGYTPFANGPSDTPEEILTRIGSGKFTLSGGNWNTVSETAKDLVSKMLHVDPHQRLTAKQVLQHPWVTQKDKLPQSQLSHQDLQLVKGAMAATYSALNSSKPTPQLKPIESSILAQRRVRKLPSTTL
Sequence of MAPK-ERK1 (P27361 whole entry): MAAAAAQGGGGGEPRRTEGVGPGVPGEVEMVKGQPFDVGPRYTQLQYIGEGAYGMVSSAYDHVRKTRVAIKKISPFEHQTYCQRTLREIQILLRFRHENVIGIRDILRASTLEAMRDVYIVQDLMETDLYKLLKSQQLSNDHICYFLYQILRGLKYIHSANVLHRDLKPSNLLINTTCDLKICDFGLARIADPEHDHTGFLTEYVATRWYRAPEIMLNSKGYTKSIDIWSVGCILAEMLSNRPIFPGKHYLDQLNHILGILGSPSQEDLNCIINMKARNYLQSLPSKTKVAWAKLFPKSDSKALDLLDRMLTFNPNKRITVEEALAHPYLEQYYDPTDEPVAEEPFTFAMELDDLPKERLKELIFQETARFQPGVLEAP

inhibition at 10 µM [1] [%]	inhibition at 10 µM [2] [%]	inhibition at 10 µM [3] [%]	inhibition at 10 µM [4] [%]	inhibition at 10 µM [5] [%]	inhibition at 10 µM [6] [%]	inhibition at 10 µM [7] [%]	inhibition at 10 µM [8] [%]	inhibition at 10 µM [9] [%]	inhibition at 10 µM [10] [%]	inhibition at 10 µM [11] [%]	inhibition at 10 µM [12] [%]	inhibition at 10 µM [13] [%]	inhibition at 10 µM [14] [%]	inhibition at 10 µM [15] [%]	inhibition at 10 µM [16] [%]	inhibition at 10 µM [17] [%]	inhibition at 10 µM [18] [%]	inhibition at 10 µM [19] [%]	inhibition at 10 µM [20] [%]	SMILES	further results
100	-11	-9	-1	5	2	9	-16	-7	10	-9	15	3	-15	-3	-20	25	-7	30	-17	Clc1ccc(Nc2ncnc3sc4c(c23)CCCC4)cc1 [Compound 7, (4-Chloro-phenyl)-(5,6,7,8-tetrahydro-benzo[4,5]thieno[2,3-d]pyrimidin-4-yl)-amine]	IC50 [1]: 0.0128 µM; melting point: 191.2 °C
98	-7	8	-6	-2	5	11	18	0	1	5	-8	4	-2	6	-6	9	5	11	5	Clc1cccc(Nc2ncnc3sc4ccccc4c23)c1 [Compound 22, Benzo[4,5]thieno[2,3-d]pyrimidin-4-yl-(3-chloro-phenyl)-amine]	melting point: 168 °C
46	-2	7	4	3	0	9	-12	-5	8	21	-1	0	7	18	9	23	-2	0	9	COc1cccc(Nc2nc(C3CC3)nc3sc4ccccc4c23)c1 [Compound 20, (2-Cyclopropyl-benzo[4,5]thieno[2,3-d]pyrimidin-4-yl)-(3-methoxy-phenyl)-amine]	melting point: 198 °C
99	-8	4	11	7	-1	8	44	15	7	5	-12	6	19	9	12	12	4	11	-7	Fc1ccc(Nc2ncnc3sc4c(c23)CCCC4)cc1 [Compound 6, (4-Fluoro-phenyl)-(5,6,7,8-tetrahydro-benzo[4,5]thieno[2,3-d]pyrimidin-4-yl)-amine]	IC50 [1]: 0.0105 µM
